According to patent US8603945B2, “Methods and compositions for providing salicyclic acid-independent pathogen resistance in plants” (The Regents of the University of California, priority 2008, dated 2013):
“Also recorded” adds a separate entry of the source.

Key:
−333_CaBP22::GUS = assay: GUS activity after spray-treatment of soil grown seedlings (structure-activity analysis, FIG. 5B, FIG. 8B); type: in vivo, Arabidopsis; conditions: 48 hours after spray-treatment, structure-activity analysis
Method: (A) Chemical structures of DCA analogs analyzed. […] Proteins were extracted from 2 week old soil grown Col-0 seedlings 48 hours after spray-treatment with compounds at the indicated concentrations (uM). Means and standard errors calculated from 3 independent replicates. (c) HpNoco2 growth inhibition assay. 2 week old soil grown Col-0 seedlings were spray-infected with HpNoco2 48 hours after treatment with varying concentrations (uM) of each DCA analog. Seedlings were assayed 7 dpi for Peronospora growth (spore counts). 100% inhibition=0 spores.
DCA and the known SA-analog INA are structurally related. To compare their activities and to gain further understanding on structural features required for their defense inducing activities, a structure function analysis (SAR) was performed using multiple derivatives of DCA and INA (FIG. 8A).

[1] = system: HpNoco2 (virulent Peronospora); assay: HpNoco2 disease resistance assay on soil grown seedlings (spore / sporangiophore counts 7 dpi); type: in vivo, Arabidopsis; conditions: for efficiency in inducing resistance to HpNoco2 (defense inducing activity): infection 48 hours after treatment, structure-activity analysis
Method: (A) RT-PCR analysis of CaBP22 and WRKY70 expression in Col-0 (wild type) and mutant backgrounds 24 hours after spraying 2 week old seedlings with water (un), 1 mM SA, or 100 μM DCA. ACT8 is shown as loading control. […] (B) Two week old seedlings were sprayed with virulent HpNoco2 24 hours after pre-treatment with 100 uM DCA. Spores were counted 7 days after spray infection. Means and standard errors were calculated from three independent experiments. Mann-Whitney U test (p<0.05) was used to determine significant differences among mutants.
A: Extent of disease susceptibility/resistance determined by counting the numbers of Peronospora sproangiophores of 17 day old seedlings 7 d after spray-inoculation with 5E4 HpNoco2 spores/ml. 24 h prior to infection with Noco2 the aerial parts of the soil grown seedlings were sprayed with the indicated concentrations of DCA (compound 67) or SA. Three replicates each with at least 30 seedlings per treatment gave similar results. […] Concentrations higher than 100 μM caused cell death, as indicated by reduced GUS staining.
(A) Chemical structures of DCA analogs analyzed. (B) Fluorometric analysis of GUS activities induced by DCA analogs. Proteins were extracted from 2 week old soil grown Col-0 seedlings 48 hours after spray-treatment with compounds at the indicated concentrations (uM). Means and standard errors calculated from 3 independent replicates. (c) HpNoco2 growth inhibition assay. 2 week old soil grown Col-0 seedlings were spray-infected with HpNoco2 48 hours after treatment with varying concentrations (uM) of each DCA analog. Seedlings were assayed 7 dpi for Peronospora growth (spore counts). 100% inhibition=0 spores. Assay was repeated three times with similar results.
DCA induces disease resistance. Time-course experiment with 2-week old Col-0 seedlings that were sprayed with 100 uM of the respective compounds at the indicated times prior to HpNoco2 (3×10^4 spores/ml) spray-infection. Spores were counted 7 dpi.

[2] = system: cluster of 131 Arabidopsis genes (Table 1); assay: Affymetrix ATH1 whole genome microarray of induced transcriptional responses; type: in vivo
Method: This transient activity of DCA functionally discriminates it from INA and allows us to precisely correlate molecular event, such as transcriptional changes, with disease resistance. Therefore we performed a set of microarray experiments with Affymetrix ATH1 Arabidopsis whole genome chips profiling DCA- and INA-induced transcriptional responses at 48 h and 6 d post treatment. […] The reference accession numbers and information can be used by one of skill in the art to obtain the sequences and additional information from public databases available at the time of filing.

PR1 = conditions: Wendehenne et al., 1998; Pillonel, 2001; read-out: published EC50 value for PR1 induction; cited from earlier work

Compound	efficiency in inducing −333_CaBP22::GUS expression (defense inducing activity) (−333_CaBP22::GUS)	efficiency in inducing resistance to HpNoco2 (defense inducing activity) [1]	up-regulation of cluster of 131 genes at 48 h post treatment ([2]; 48 h post treatment)	up-regulation of cluster of 131 genes at 6 d post treatment ([2]; 6 d post treatment)	EC50 (PR1) [µM]	duration of defense-inducing activity ([1]; 100 uM, time-course, FIG. 9)
O=C(O)c1cc(Cl)cc(Cl)c1 [3,5-Dichlorobenzoic acid, reference compound]	DCA is more active than 3,5-Dichlorobenzoic acid	DCA is more active than 3,5-Dichlorobenzoic acid				
Nc1c(Cl)cccc1C(=O)O [3-Chloroanthranilic acid]	reduced defense inducing activities	reduced defense inducing activities				
O=C(O)c1cccc(Cl)c1 [3-Chlorobenzoic acid, reference compound]	3-Chloroanthranilic acid is more active than 3-Chlorobenzoic acid	3-Chloroanthranilic acid is more active than 3-Chlorobenzoic acid				
Nc1ccc(Cl)cc1C(=O)O [5-Chloroanthranilic acid]	reduced defense inducing activities	reduced defense inducing activities				
Nc1cccc(Cl)c1C(=O)O [6-Chloroanthranilic acid, reference compound]	completely inactive	completely inactive				
O=C(O)c1cc(Cl)nc(Cl)c1 [INA, 2,6-dichloroisonicotinic acid, reference compound]	nearly identical	nearly identical; also recorded: equally efficient	significantly up-regulated	significantly up-regulated	10	lasts much longer leading to strong disease resistance for the entire duration of the experiment
O=C(O)c1ccccc1O [SA, salicylic acid]	less efficiently than DCA or INA	less efficiently than DCA or INA			65	
Nc1ccccc1C(=O)O [anthranilic acid, reference compound]	nearly completely inactive	nearly completely inactive				
O=C(O)c1ccccc1 [benzoic acid, reference compound]	nearly completely inactive	nearly completely inactive				
